For assay [1], the system named is Heart. The experiment in a line: Antiarrhythmic activity against ouabain-induced arrhythmia in guinea pig right ventricle assessed as reversal of cardiac arrhythmia to normal rhythm at 1 uM. The assay is classed as functional, tissue-based. As to conditions: Cavia porcellus.
Assay [2] relates to Heart. The experiment in a line: Antiarrhythmic activity against ouabain-induced arrhythmia in guinea pig left atria assessed as reversal of cardiac arrhythmia to normal rhythm at 3 uM. The assay is classed as functional, tissue-based. As to conditions: Cavia porcellus.
The nature of assay [3]: Effect on 2 Hz electrically driven contractile tension in WKY rat right ventricle at 30 uM relative to control. The assay is classed as functional, Heart right ventricle.
The nature of assay [4]: Effect on 2 Hz electrically driven contractile tension in WKY rat right ventricle at 10 uM relative to control. The assay is classed as functional, Heart right ventricle.
Assay [5] can be described thus: Effect on 2 Hz electrically driven contractile tension in WKY rat right ventricle at 3 uM relative to control. The assay is classed as functional, Heart right ventricle.
A short description of assay [6]: Effect on 2 Hz electrically driven contractile tension in WKY rat right ventricle at 1 uM relative to control. It is filed as functional, Heart right ventricle.
Assay [7] deals with Left cardiac atrium. The experiment in a line: Effect on 2 Hz electrically driven contractile tension in WKY rat left atria at 30 uM relative to control. The assay is classed as functional.
Assay [8] relates to Left cardiac atrium. The experiment in a line: Effect on 2 Hz electrically driven contractile tension in WKY rat left atria at 10 uM relative to control. The assay is classed as functional.
Assay [9] deals with Left cardiac atrium. Nature of the assay: Effect on 2 Hz electrically driven contractile tension in WKY rat left atria at 3 uM relative to control. It is filed as functional.
The test system of assay [10] is Left cardiac atrium. The experiment in a line: Effect on 2 Hz electrically driven contractile tension in WKY rat left atria at 1 uM relative to control. The assay is classed as functional.
The subject of assay [11] is Right cardiac atrium. The experiment in a line: Effect on spontaneous contractile tension in WKY rat right atria at 1 uM relative to control.
Assay [12] relates to Right cardiac atrium. The experiment in a line: Effect on spontaneous contractile tension in WKY rat right atria at 3 uM relative to control.
Assay [13] relates to Right cardiac atrium. The experiment in a line: Effect on spontaneous contractile tension in WKY rat right atria at 10 uM relative to control.
For assay [14], the system named is Right cardiac atrium. The experiment in a line: Effect on spontaneous contractile tension in WKY rat right atria at 30 uM relative to control.
In assay [15] the test system is Heart. Nature of the assay: Effect on spontaneously beating heart rate in WKY rat right atria at 1 uM relative to control.
Assay [16] deals with Heart. Nature of the assay: Effect on spontaneously beating heart rate in WKY rat right atria at 3 uM relative to control.
The subject of assay [17] is Heart. The experiment in a line: Effect on spontaneously beating heart rate in WKY rat right atria at 10 uM relative to control.
The test system of assay [18] is Heart. The experiment in a line: Effect on spontaneously beating heart rate in WKY rat right atria at 30 uM relative to control.
Assay [19] in a line: Effect on 2 Hz electrically driven contractile tension in WKY rat right ventricle at 0.3 uM relative to control. It is filed as functional, Heart right ventricle.
In assay [20] the test system is Left cardiac atrium. The experiment in a line: Effect on 2 Hz electrically driven contractile tension in WKY rat left atria at 0.3 uM relative to control. The assay is classed as functional.
Assay [21] relates to Right cardiac atrium. The experiment in a line: Effect on spontaneous contractile tension in WKY rat right atria at 0.3 uM relative to control.
In assay [22] the test system is Heart. The experiment in a line: Effect on spontaneously beating heart rate in WKY rat right atria at 0.3 uM relative to control.
Assay [23] has as its system Heart. The experiment in a line: Antiarrhythmic activity against ouabain-induced arrhythmia in guinea pig right ventricle assessed as reversal of cardiac arrhythmia to normal rhythm at 3 uM. The assay is classed as functional, tissue-based. The settings on record: Cavia porcellus.
The subject of assay [24] is Heart. Nature of the assay: Antiarrhythmic activity against ouabain-induced arrhythmia in guinea pig left atria assessed as reversal of cardiac arrhythmia to normal rhythm at 1 uM. The settings on record: Cavia porcellus. The assay is classed as functional, tissue-based.
Assay [25] deals with Heart. Nature of the assay: Antiarrhythmic activity against ouabain-induced arrhythmia in guinea pig right atria assessed as reversal of cardiac arrhythmia to normal rhythm at 10 uM. The assay is classed as functional, tissue-based. As to conditions: Cavia porcellus.
The test system of assay [26] is Heart. Nature of the assay: Antiarrhythmic activity against ouabain-induced arrhythmia in guinea pig right ventricle assessed as reversal of cardiac arrhythmia to normal rhythm at 10 uM. The settings on record: Cavia porcellus. It is filed as functional, tissue-based.
The test system of assay [27] is Heart. Nature of the assay: Antiarrhythmic activity against ouabain-induced arrhythmia in guinea pig right atria assessed as reversal of cardiac arrhythmia to normal rhythm at 30 uM. It is filed as functional, tissue-based. As to conditions: Cavia porcellus.
The subject of assay [28] is Heart. Nature of the assay: Antiarrhythmic activity against ouabain-induced arrhythmia in guinea pig right atria assessed as reversal of cardiac arrhythmia to normal rhythm at 3 uM. The assay is classed as functional, tissue-based. As to conditions: Cavia porcellus.
The test system of assay [29] is Heart. The experiment in a line: Antiarrhythmic activity against ouabain-induced arrhythmia in guinea pig right atria assessed as reversal of cardiac arrhythmia to normal rhythm at 1 uM. It is filed as functional, tissue-based. As to conditions: Cavia porcellus.
The subject of assay [30] is Heart. The experiment in a line: Antiarrhythmic activity against ouabain-induced arrhythmia in guinea pig right ventricle assessed as reversal of cardiac arrhythmia to normal rhythm at 30 uM. The assay is classed as functional, tissue-based. The settings on record: Cavia porcellus.

Activity calls are given as the source filed them. No cut-off for these calls is given here.

This passage reports Activity results from ChEMBL document CHEMBL1145680, “Bioactive Norlignan Glucosides from Curculigo capitulata” (1997).

Take `CO[C@H](c1ccc(O)c(O)c1)[C@H](CC#Cc1ccc(O)c(O)c1)O[C@@H]1O[C@H](CO)[C@@H](O)[C@H](O)[C@H]1O`: the result in [1] and in [2] was inactive. In addition, the Activity is reported as 99.3% in assay [3]; 104.3% in [4]; 106.3% in [5]; 106.7% in [6]; 89.7% in assay [7]; 102.3% in [8]. Further, the Activity stood at 101.3% in [9]; 103% in [10]; 99% in [11]; 99% in assay [12]; 100.3% in [13]; 101.7% in [14]. Besides, the Activity in assay [15] amounted to 100%; in assay [16], 103%; in assay [17], 103%; in [18] it was 103%.
Turning to `CCCCO[C@H](c1ccc(O)c(O)c1)[C@H](CC#Cc1ccc(O)c(O)c1)O[C@@H]1O[C@H](CO)[C@@H](O)[C@H](O)[C@H]1O`, the result in [1] was inactive. In [2], the result was Active. The Activity in [3] came to 88.2%; in assay [4] it was 95.4%; in assay [5], 96.8%; in [6], 95.8%; in assay [19] it was 99%; in assay [7], 92.5%. The Activity amounted to 89.4% in assay [8]; 91.2% in [9]; 96% in [10]; 98.8% in assay [20]; 91% in assay [11]; 89.6% in assay [12]. Also, the Activity in assay [13] was determined as 86.2%; in [14], 83.6%; in [15], 100%; in [16], 99%; in assay [17] it was 99.8%; in [18] it was 97.6%. Further, the Activity in assay [21] worked out at 94%; in assay [22] it was 100%.
On to `OC[C@H]1O[C@@H](O[C@@H](CC#Cc2ccc(O)c(O)c2)[C@H](O)c2ccc(O)c(O)c2)[C@H](O)[C@@H](O)[C@@H]1O` [NYASICOSIDE], for which the result in assay [23], in [1] and in assay [24] was inactive. Further, the outcome in [2] was Active. In addition, the Activity in [3] came to 74.6%; in assay [4], 78.2%; in [5], 83.6%; in [6], 84.8%; in assay [19] it was 92.3%; in assay [7] it was 98%. The Activity was 100.3% in [8]; 104.5% in assay [9]; 105.8% in assay [10]; 108.3% in [20]; 94.5% in assay [11]; 92% in assay [12]. Also, the Activity in [13] is 83.3%; in assay [14], 78%; in assay [15], 98.8%; in [16], 97.4%; in assay [17] it was 98.5%; in [18] it was 98.5%. The Activity in assay [21] came out at 96.8%; in [22] it was 100%.
Turning to `CCCCO[C@@H](c1ccc(O)c(O)c1)[C@H](CC#Cc1ccc(O)c(O)c1)O[C@@H]1O[C@H](CO)[C@@H](O)[C@H](O)[C@H]1O`, the outcome in assay [23], in assay [1], in assay [25] and in assay [26] was inactive. Also, the Activity in assay [3] is listed as 92.2%; in [4], 96.8%; in assay [5], 100.4%; in assay [6] it was 100%; in assay [19] it was 102%; in assay [7], 103.8%. For the same compound, the Activity is 105% in assay [8]; 101.1% in assay [9]; 95.3% in assay [10]; 98.8% in assay [20]; 94.3% in assay [11]; 91.6% in assay [12]. Also, the Activity was 87.8% in assay [13]; 86.4% in assay [14]; 99% in assay [15]; 98.4% in assay [16]; 98.4% in assay [17]; 97.4% in assay [18]. Moreover, the Activity was found to be 95.5% in assay [21] and 100% in assay [22].
`OC[C@H]1O[C@@H](O[C@@H](CC#Cc2ccc(O)cc2)[C@H](O)c2ccc(O)c(O)c2)[C@H](O)[C@@H](O)[C@@H]1O`: the result in [23], in assay [1], in [27], in assay [25], in assay [28] and in assay [29] was inactive. Besides, the result in [26] and in [30] was inactive. In addition, the Activity in assay [3] is on record as 94.2%; in [4], 95.2%; in assay [5] it was 99.2%; in assay [6], 98.4%; in [7], 116.3%; in assay [8], 119.3%. The Activity in [9] is on record as 111.5%; in [10], 106.8%; in [11] it was 97.5%; in [12], 98.3%; in assay [13], 94.5%; in [14], 94.8%. Moreover, the Activity in [15] was found to be 97.5%; in [16], 97.5%; in assay [17], 98.5%; in assay [18] it was 98.5%; in assay [22], 100%.
